Results reported in US12691107B2, “Methods for the treatment and prevention of lung infections caused by gram-positive bacteria, fungus, or virus by administration of tafenoquine” (priority 2020, dated 2026).
pEC50: −log10 of the molar value. Read-outs that look alike come from different tables or passages of the source.

Legend:
Cryptococcus neoformans = assay: Antifungal MIC (RPMI-1640 microdilution); assay type: cell-based
P. variotii = assay: Antifungal MIC (RPMI-1640 microdilution); assay type: cell-based; settings: Paecilomyces variotii, isolate MYA-3630
Sporothrix sp. = assay: Antifungal MIC (RPMI-1640 microdilution); assay type: cell-based
Streptococcus pneumoniae = assay: Antibacterial MIC (broth microdilution); assay type: cell-based; settings: CA-MHB with 3% LHB
E. coli = assay: Antibacterial MIC (broth microdilution); assay type: cell-based
Experimental: Growth Medium—Cation adjusted Mueller-Hinton broth was used as the test medium. Broth for panel preparation was prepared from commercial dehydrated medium (Difco formulation, BD Diagnostics, catalog number 275730).
Dilution of Investigational Agents—Polystyrene test tubes were used to prepare the drug dilutions and sterile U-shaped 96-well polystyrene microtiter trays were used for performing the MIC assays. Stock solutions of the investigational agents were prepared at concentrations 100-times the highest concentration to be tested (6400-1.25 μg/ml) using dimethyl sulfoxide. Aliquots of the stock solutions were dispensed into polypropylene vials and stored at −20° C. Further dilutions (1:50) were made in the culture medium (cation-adjusted Mueller-Hinton medium).
After the dilutions of the working 2-fold investigational antibacterial solutions were prepared, 50 μL of each concentration was transferred into rows of the first 10 wells of each 12-well column of the U-shaped disposable 96-well microtiter trays using a multichannel pipettor. The 11th well in each row served as the sterility control, and the 12th well contained only culture medium to serve as the growth control for each isolate. In like manner, the control drug for the organism being tested was prepared in a separate 96 well panel exactly as described above. A 50 μL volume of the standardized inoculum suspension of each test isolate was prepared in culture medium to directly inoculate each test well of the drug containing microtiter tray.
Inoculum Preparation—Colonies of each strain generated on sheep blood agar plates with overnight growth at 35° C. in ambient air were used to directly prepare a suspension equivalent in density to the 0.5 McFarland opacity standard. The exact turbidity of each suspension was determined using a desktop portable photometer. For panels containing 2× drug concentrations, a 1:100 dilution of the McFarland organism suspension was prepared in cation-adjusted Mueller-Hinton broth and 50 μL aliquots of each test (and control) strain was added to each well of the designated rows of the microtiter trays using a multichannel pipettor. The target inoculum concentration was 5×10^5 CFU/ml in each well.
Trays were removed and each well were inspected for evidence of growth (turbidity). The MIC was defined as the lowest concentration of the investigational agent and the control drug that prevents visibly discernible growth in the test wells.

K. pneumoniae = assay: Antibacterial MIC (broth microdilution); assay type: cell-based; settings: Klebsiella pneumoniae
SARS-CoV-2 [1] = assay: microbe, parasite or virus in culture; assay type: cell-based
SARS-CoV-2 [2] = assay: SARS-CoV-2 antiviral assay in CALU-3 cells; assay type: cell-based; settings: Severe acute respiratory syndrome coronavirus 2, medium with 10% fetal bovine serum, read-out: EC50 (same as IC50 of FIG. 4)
MCMV strain Smith = assay: MCMV qPCR assay in mouse embryo fibroblast cells; assay type: cell-based; settings: 168 h, 7 d
[3] = system: RSV, MERS coronavirus and influenza A H1N1; assay type: cell-based
Pneumocystis [4] = assay: Pneumocystis in vitro (Bartlett et al., 1991); assay type: cell-based; settings: read-out: equivalent MIC in the absence of protein
Excerpt: Therefore, the minimum inhibitory concentration in vitro is approximately 10 microgram/ml.

Pneumocystis [5] = settings: cited from earlier work
[6] = in vivo, cited from earlier work

COc1cc(C)c2c(Oc3cccc(C(F)(F)F)c3)c(OC)cc(NC(C)CCCN)c2n1.O=C(O)CCC(=O)O (centres unmarked) [Tafenoquine Succinate]
MIC50 (Cryptococcus neoformans; Cryptococcus neoformans, read-out: MIC 50% inhibition, isolate CN3): 4 µg/mL
MIC50 (Cryptococcus neoformans; Cryptococcus neoformans, read-out: MIC 50% inhibition, isolate H99): 4 µg/mL
MIC50 (Cryptococcus neoformans; Cryptococcus neoformans, read-out: MIC 50% inhibition, isolate USC1597): 4 µg/mL
MIC (Cryptococcus neoformans; Cryptococcus neoformans, read-out: MIC 100% inhibition, isolate USC1597): 4 µg/mL
MIC 100% inhibition (Cryptococcus neoformans; isolate CN3): 4 µg/mL
MIC 100% inhibition (Cryptococcus neoformans; isolate H99): 4 µg/mL
MIC50 (P. variotii; read-out: MIC 50% inhibition): 4 µg/mL
MIC (P. variotii; read-out: MIC 100% inhibition): 4 µg/mL
MIC50 (Sporothrix sp.; read-out: MIC 50% inhibition, isolate Sporo1): 2 µg/mL
MIC50 (Sporothrix sp.; read-out: MIC 50% inhibition, isolate Sporo2): 1 µg/mL
MIC50 (Sporothrix sp.; read-out: MIC 50% inhibition, isolate Sporo3): 2 µg/mL
MIC (Sporothrix sp.; read-out: MIC 100% inhibition, isolate Sporo1): 4 µg/mL
MIC (Sporothrix sp.; read-out: MIC 100% inhibition, isolate Sporo2): 2 µg/mL
MIC (Sporothrix sp.; read-out: MIC 100% inhibition, isolate Sporo3): 4 µg/mL
MIC (Streptococcus pneumoniae; Streptococcus pneumoniae, ATCC49619, isolate ATCC 49619, read-out: MIC): 16 µg/mL
MIC (Streptococcus pneumoniae; Streptococcus pneumoniae, isolate MD77773, read-out: MIC): 16 µg/mL
MIC (Streptococcus pneumoniae; isolate CO314937): 16 µg/mL
MIC (E. coli; Escherichia coli, ATCC25922, isolate ATCC 25922, read-out: MIC): > 64 µg/mL
MIC (E. coli; Escherichia coli, isolate J4243 (MO72), read-out: MIC): > 64 µg/mL
MIC (E. coli; isolate J4244 (JJ1886)): >64 µg/mL
MIC (K. pneumoniae; ATCC70063, isolate ATCC 70063): > 64 µg/mL
MIC (K. pneumoniae; isolate AR-97): > 64 µg/mL
MIC (K. pneumoniae; isolate AR-113): > 64 µg/mL

COc1cc(C)c2c(Oc3cccc(C(F)(F)F)c3)c(OC)cc(NC(C)CCCN)c2n1 (centres unmarked) [Tafenoquine, N(4)-[2,6-Dimethoxy-4-methyl-5-[3-(trifluoromethyl)phenoxy]quinolin-8-yl]pentane-1,4-diamine]
selectivity index (SARS-CoV-2 [1]; 4-day assay): 2.4
pEC50 (SARS-CoV-2 [1]; Severe acute respiratory syndrome coronavirus 2, Vero C1008, 96 h): 4.80
pEC50 (SARS-CoV-2 [2]): 5.07
pEC50 (MCMV strain Smith): < 5.22
antiviral activity [3]: too cytotoxic to the cell lines used to determine whether antiviral activity was present
MIC (Pneumocystis [4]): 5 µg/mL
Approximate EC50 of tafenoquine against Pneumocystis in vitro (Pneumocystis [5]): ~1 µg/mL
Cmax of a single dose of 200 mg ([6]; 200 mg): [147 ng/ml *4.4].
Cmax following a single dose [6]: approximately 90 nanogram/ml
dose proportionality of pharmacokinetics [6]: proportional with the dose administered in the therapeutic range
steady state Cmax [6]: 300 nanogram/ml
steady state concentrations in 95% of individuals [6]: above 80 nanogram/ml
